The text below walks through data of ChEMBL document CHEMBL4433255, “Small-molecule agents for the treatment of inflammatory bowel disease” (Bioorg Med Chem Lett, 2019).

Experiment [1] deals with Sphingosine 1-phosphate receptor 5 (Homo sapiens, UniProt Q9H228). The experiment is described as follows: Agonist activity at S1P5 (unknown origin) assessed as stimulation of [35S]GTPgammaS binding incubated for 120 mins in presence of GDP by TopCount scintillation counting method. The experiment is classed as functional. (GTPγS is a poorly hydrolysed GTP analogue; its binding reports G protein activation.)
Chain of Sphingosine 1-phosphate receptor 5 (Q9H228 whole entry): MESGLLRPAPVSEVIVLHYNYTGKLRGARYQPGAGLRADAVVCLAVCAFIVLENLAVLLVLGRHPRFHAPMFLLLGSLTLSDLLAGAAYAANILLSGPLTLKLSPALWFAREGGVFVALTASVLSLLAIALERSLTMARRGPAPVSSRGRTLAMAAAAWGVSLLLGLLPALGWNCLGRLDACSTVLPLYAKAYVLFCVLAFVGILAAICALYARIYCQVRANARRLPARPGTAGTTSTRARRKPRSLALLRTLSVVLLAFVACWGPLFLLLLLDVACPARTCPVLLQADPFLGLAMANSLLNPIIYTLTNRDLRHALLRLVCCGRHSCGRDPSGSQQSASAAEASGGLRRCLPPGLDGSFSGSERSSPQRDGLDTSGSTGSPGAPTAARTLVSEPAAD

The subject of the next experiment is Rattus norvegicus. The experiment is described as follows: Antiinflammatory activity in Sprague-Dawley rat model of TNBS-induced colitis assessed as reduction in number of circulating lymphocytes at 0.6 mg/kg, po dosed 2 hrs after TNBS treatment and continued daily for 7 days by gavage and measured up to 24 hrs post treatment relative to control. The experiment is classed as functional. Also noted: scale not given: the % may be the effect or the level left.

A further experiment has as its system BaF3. The experiment is described as follows: Inhibition of chemotaxis in mouse BAF3 cells. The class given is functional, cell-based.
The species named for experiment [2] is Homo sapiens. The experiment is described as follows: Selectivity ratio of EC50 for recombinant human BCR-JAK1 expressed in mouse Ba/F3 cells to EC50 for recombinant human TEL-JAK3 expressed in mouse Ba/F3 cells. The class given is cell-based.
Experiment [3] is filed under the species Homo sapiens. The experiment is described as follows: Selectivity ratio of EC50 for recombinant human BCR-JAK1 expressed in mouse Ba/F3 cells to EC50 for recombinant human TEL-TYK2 expressed in mouse Ba/F3 cells. The experiment is classed as cell-based.
A short description of experiment [4]: Inhibition of recombinant human BCR-JAK1 expressed in mouse Ba/F3 cells assessed as reduction in pSTAT5 level incubated for 30 mins by AlphaScreen assay. The experiment is classed as cell-based. The note with it: BaF3, 0.5 h. In general terms: In Alpha technology, singlet oxygen from a donor bead excites a nearby acceptor bead.
The species entered for experiment [5] is Homo sapiens. The experiment is described as follows: Selectivity ratio of EC50 for recombinant human BCR-JAK1 expressed in mouse Ba/F3 cells to EC50 for recombinant human TEL-JAK2 expressed in mouse Ba/F3 cells. The experiment is classed as cell-based.
For a further experiment, the target named is T1, Integrin alpha-4/beta-7 (Homo sapiens, UniProt P13612+P26010).
T1 sequence (P13612 whole entry): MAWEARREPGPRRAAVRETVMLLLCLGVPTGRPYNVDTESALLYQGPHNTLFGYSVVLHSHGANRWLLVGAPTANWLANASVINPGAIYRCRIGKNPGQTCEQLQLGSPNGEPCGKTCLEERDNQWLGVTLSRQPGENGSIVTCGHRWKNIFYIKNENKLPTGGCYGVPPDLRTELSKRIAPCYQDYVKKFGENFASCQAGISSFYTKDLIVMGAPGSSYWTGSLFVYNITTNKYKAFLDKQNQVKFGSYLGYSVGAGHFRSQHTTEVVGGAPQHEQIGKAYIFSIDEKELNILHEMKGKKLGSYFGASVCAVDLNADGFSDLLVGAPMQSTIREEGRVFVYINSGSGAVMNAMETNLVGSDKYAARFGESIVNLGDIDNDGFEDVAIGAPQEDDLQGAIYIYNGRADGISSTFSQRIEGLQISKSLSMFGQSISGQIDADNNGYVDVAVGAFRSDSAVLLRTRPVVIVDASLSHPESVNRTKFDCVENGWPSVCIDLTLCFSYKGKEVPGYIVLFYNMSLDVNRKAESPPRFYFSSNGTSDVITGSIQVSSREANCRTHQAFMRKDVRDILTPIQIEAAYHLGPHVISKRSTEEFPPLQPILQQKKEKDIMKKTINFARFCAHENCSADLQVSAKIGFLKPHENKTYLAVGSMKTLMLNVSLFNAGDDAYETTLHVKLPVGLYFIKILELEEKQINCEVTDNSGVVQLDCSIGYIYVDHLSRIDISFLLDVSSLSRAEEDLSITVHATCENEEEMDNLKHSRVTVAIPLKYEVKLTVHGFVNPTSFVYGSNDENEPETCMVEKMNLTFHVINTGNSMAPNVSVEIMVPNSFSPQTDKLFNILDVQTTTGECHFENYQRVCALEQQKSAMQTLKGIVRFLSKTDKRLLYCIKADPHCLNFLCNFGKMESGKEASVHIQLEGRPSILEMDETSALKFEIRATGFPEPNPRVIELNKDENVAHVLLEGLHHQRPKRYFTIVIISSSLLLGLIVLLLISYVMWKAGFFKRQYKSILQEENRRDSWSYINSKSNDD
T1 sequence (P26010 whole entry): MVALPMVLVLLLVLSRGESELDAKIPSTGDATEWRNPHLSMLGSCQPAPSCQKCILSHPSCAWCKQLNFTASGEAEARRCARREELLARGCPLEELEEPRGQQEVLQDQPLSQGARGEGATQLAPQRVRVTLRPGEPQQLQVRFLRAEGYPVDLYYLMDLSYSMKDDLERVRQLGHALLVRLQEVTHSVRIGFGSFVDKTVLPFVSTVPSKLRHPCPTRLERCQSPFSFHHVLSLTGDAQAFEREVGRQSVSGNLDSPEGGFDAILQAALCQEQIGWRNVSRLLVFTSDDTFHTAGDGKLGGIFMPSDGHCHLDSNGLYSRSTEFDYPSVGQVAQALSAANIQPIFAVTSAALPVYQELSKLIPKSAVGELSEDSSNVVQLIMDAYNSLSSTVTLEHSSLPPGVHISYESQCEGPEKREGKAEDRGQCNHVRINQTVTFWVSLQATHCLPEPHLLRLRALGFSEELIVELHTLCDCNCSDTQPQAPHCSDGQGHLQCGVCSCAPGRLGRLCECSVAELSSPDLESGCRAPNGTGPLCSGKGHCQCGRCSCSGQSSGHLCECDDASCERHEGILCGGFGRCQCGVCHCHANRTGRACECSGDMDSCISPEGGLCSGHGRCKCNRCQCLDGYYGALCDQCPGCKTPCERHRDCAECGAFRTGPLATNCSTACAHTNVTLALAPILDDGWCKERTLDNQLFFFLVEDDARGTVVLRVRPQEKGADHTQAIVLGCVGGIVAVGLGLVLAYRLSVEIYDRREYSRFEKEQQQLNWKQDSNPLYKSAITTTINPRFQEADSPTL
The experiment in a line: Antagonist activity at integrin alpha4beta7 expressed in human RPMI8866 cells assessed as reduction in cell adhesion to rat MadCAM incubated for 40 to 60 mins by lactate dehydrogenase assay. The class given is cell-based.

The test system of a further experiment is Mus musculus. The experiment in a line: Immunosuppressive activity in BALB/c mouse assessed as inhibition of leukocyte homing to peyer's patches orally dosed by FACS analysis. The class given is functional, organism-based. (A flow cytometer gives signals particle by particle.)
The nature of experiment [6]: Inhibition of IL-10 deficient BALB/c mouse CD4 positive T-cell migration by immunofluorescence method relative to control. The experiment is classed as functional.
For another experiment, the target named is Integrin alpha-4/beta-1 (Homo sapiens, UniProt P05556+P13612). The experiment in a line: Antagonist activity at integrin alpha4beta1 expressed in human Jurkat cells assessed as reduction in cell adhesion to human VCAM-1 incubated for 40 to 60 mins by lactate dehydrogenase assay. The experiment is classed as cell-based.
Chain of Integrin alpha-4/beta-1 (P05556 whole entry, one chain of several): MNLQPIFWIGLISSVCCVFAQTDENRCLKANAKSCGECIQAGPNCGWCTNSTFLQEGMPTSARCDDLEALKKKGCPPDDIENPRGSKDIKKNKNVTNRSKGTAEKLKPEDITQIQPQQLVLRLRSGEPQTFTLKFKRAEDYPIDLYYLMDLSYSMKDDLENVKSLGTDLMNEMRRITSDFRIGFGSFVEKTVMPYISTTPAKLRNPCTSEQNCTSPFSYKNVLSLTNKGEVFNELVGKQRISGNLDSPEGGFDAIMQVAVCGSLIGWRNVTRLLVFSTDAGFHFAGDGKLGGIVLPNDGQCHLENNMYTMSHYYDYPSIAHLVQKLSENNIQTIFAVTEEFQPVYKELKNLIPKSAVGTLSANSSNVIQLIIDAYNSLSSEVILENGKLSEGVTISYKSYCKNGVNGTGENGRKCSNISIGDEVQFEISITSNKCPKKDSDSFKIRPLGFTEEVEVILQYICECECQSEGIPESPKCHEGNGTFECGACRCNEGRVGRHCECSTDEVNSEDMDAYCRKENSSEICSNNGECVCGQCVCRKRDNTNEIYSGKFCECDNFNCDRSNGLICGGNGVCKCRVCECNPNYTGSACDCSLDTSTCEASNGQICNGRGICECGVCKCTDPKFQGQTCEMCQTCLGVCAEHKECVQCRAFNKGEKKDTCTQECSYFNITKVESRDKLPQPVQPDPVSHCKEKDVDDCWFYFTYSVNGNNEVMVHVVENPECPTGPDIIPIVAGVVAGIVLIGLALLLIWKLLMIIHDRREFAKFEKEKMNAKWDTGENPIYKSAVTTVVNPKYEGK

pEC50: −log10 of the molar value.

On to `CC(C)Oc1ccc(-c2nc(-c3cccc4c3CC[C@@H]4NCCO)no2)cc1C#N` [OZANIMOD], for which the pEC50 (commonly the negative decadic logarithm of the EC50, by convention in mol/L) in [1] was 8.37. Further, the Activity in the experiment on Rattus norvegicus is reported as 51%.

As for `CC(C)(C)c1ccc(S(=O)(=O)Nc2ccc(Cl)cc2C(=O)c2cc[n+]([O-])cc2)cc1` [VERCIRNON], the pEC50 with BaF3 is 8.55.

In the case of `CC[C@@H]1CN(C(=O)NCC(F)(F)F)C[C@@H]1c1cnc2cnc3[nH]ccc3n12` [UPADACITINIB], the values for the Ratio EC50 in the experiment filed under Homo sapiens [2], in the experiment filed under Homo sapiens [3] and in the experiment listed under Homo sapiens [5] were 133, 192 and 42, respectively. Moreover, the pEC50 in experiment [4] is 7.85.

As to `CN(C)c1ccc2c(c1)c(=O)n(-c1ccc(C[C@H](NC(=O)c3c(Cl)cccc3Cl)C(=O)O)cc1)c(=O)n2C`, the pEC50 at Integrin alpha-4/beta-7 was 8.85; in the experiment on Mus musculus, 6.74; at Integrin alpha-4/beta-1 it was 8.27. Also, in [6], the “inhibition (INH)” value is listed as >95%.
